Where “and” joins values, the source holds several entries; their conditions need not be identical. Identical values can stand only once. After the bases stand the sugars from the 5' end (letter, count) and the backbone: PS all phosphorothioate, else s phosphorothioate and o phosphodiester by linkage. Methylation of C is not given here. e = 2'-O-(2-methoxyethyl) (MOE); k = constrained ethyl (cEt); d = 2'-deoxy (DNA)

Series [1] concerns the target KRAS. Conditions: ASO.
The target in series [2] is IRF5. The note with it: ASO, KARPAS-229, 4 µM.

In turn, “TCCAGTGATACTTTCA (sugars k3 d9 k3 e1, PS)” had a target mRNA inhibition in series [1] (A431, 2 µM) of 47%. AGACTTGAAAAGTGTT (sugars k3 d10 k3, PS) showed a target mRNA inhibition in series [1] (A431, 2 µM) of 28%. In turn, “TCCATTTATGTGACTA (sugars kkddddddddddkeke, PS)” showed a target mRNA inhibition in series [1] (A431, 2 µM) of 22%. On the same count and under the same terms, to TCAACTGCATGCACCA (sugars k3 d10 k3, PS) belongs 52%; to TAGGGCATTTCTGATG (sugars k3 d10 k3, PS), 20%; to AGTCCAGTGATACTTT (sugars k3 d10 k3, PS), 8%. TATAATGGTGAATATC (sugars k3 d10 k3, PS) gave a target mRNA inhibition in series [1] (A431, 2 µM) of 7%.

In the case of AATCCATTTATGTGAC (sugars k3 d10 k3, PS), the target mRNA inhibition in series [1] (A431, 2 µM) came out at 26%.

Consider GCTATAATAATCCCCA (sugars k3 d10 k3, PS), for which the target mRNA inhibition in series [1] (A431, 0.185 µM) was determined as 1%; in series [1] (A431, 0.556 µM), 24%; in series [1] (A431, 1.667 µM), 55%; in series [1] (A431, 2 µM), 56%; in series [1] (A431, 5 µM) it was 68%. With “CCATTTATGTGACTAG (sugars kkddddddddddkeke, PS)”, the target mRNA inhibition in series [1] (A431, 2 µM) is 46%.

Take TGTAAATATAGCCCCA (sugars k3 d10 k3, PS): in series [1] (A431, 2 µM), the target mRNA inhibition was found to be 34%. The sequence TAATGGTGAATATCTT (sugars k3 d10 k3, PS) gave a target mRNA inhibition in series [1] (A431, 2 µM) of 11%. Regarding TTTCTGATGTGACTCA (sugars k3 d10 k3, PS), the target mRNA inhibition in series [1] (A431, 0.185 µM) is 0%; in series [1] (A431, 0.556 µM) it was 23%; in series [1] (A431, 1.667 µM), 43%; in series [1] (A431, 2 µM), 57%; in series [1] (A431, 5 µM), 60%. In turn, TGTTGAGCTATCCAAA (sugars k3 d10 k3, PS) had a target mRNA inhibition in series [1] (A431, 2 µM) of 37%. The same measure, in the same setting: to “CCATTCAAAGTTCACA (sugars kkdddddddddkdkdk, PS)” belongs 31%. On to TGACTAATAGCAGTGG (sugars k3 d10 k3, PS), for which the target mRNA inhibition was 64% in series [1] (A431, 0.037 µM); 58% in series [1] (A431, 2 µM); 96% and 93% in series [1] (A431, 5 µM); 53.3% in series [1] (NCI-H460, 0.037 µM).

In turn, GTATCTTGTTGAGCTA (sugars k3 d10 k3, PS) yielded a target mRNA inhibition in series [1] (A431, 2 µM) of 56%. Still for that read-out and setting: to “GCTGTGAAACTCTCTA (sugars kkddddddddkekekk, PS)” belongs 16%; to “TCCATTTATGTGACTA (sugars kdddddddddkekeke, PS)”, 15%.

On to “TTGATTTGTCAGCAGG (sugars kkkddddddddkekek, PS)”, for which, in series [1] (A431, 2 µM), the target mRNA inhibition is 37% and 12%.

In turn, GTGAATATCTTCAAAT (sugars k3 d10 k3, PS) had a target mRNA inhibition in series [1] (A431, 2 µM) of 0%. “ACCAGTGTTAAGAGAA (sugars kkkddddddddkdkdk, PS)”: the target mRNA inhibition in series [1] (A431, 2 µM) was 50%. The same measure, in the same setting: with TCACTTCATTGTTTAA (sugars k3 d10 k3, PS) the figure was 32%; with “TTGATTTGTCAGCAGG (sugars kkkdddddddddkeke, PS)”, 40%. As for “CCATTCAAAGTTCACA (sugars kkkddddddddkekek, PS)”, the target mRNA inhibition in series [1] (A431, 2 µM) is 39%. Regarding CATTGTTTAAAAAAAA (sugars k3 d10 k3, PS), the target mRNA inhibition in series [1] (A431, 2 µM) came to 0%.

In the case of AAATTGTGCAATGGTG (sugars k3 d10 k3, PS), in series [1] (A431, 2 µM), the target mRNA inhibition came out at 48%.

For the sequence “TGGTGTAACATAGGTT (sugars kkddddddddkekekk, PS)”, the target mRNA inhibition came out at 11% in series [1] (A431, 0.185 µM); 33% in series [1] (A431, 0.556 µM); 58% in series [1] (A431, 1.667 µM); 55% in series [1] (A431, 2 µM); 68% in series [1] (A431, 5 µM). In series [1] (A431, 2 µM), GAGAATGGATATTCAA (sugars k3 d10 k3, PS) yielded a target mRNA inhibition of 8%. The same measure, in the same setting: with TCCAGTGATACTTTCA (sugars k3 d10 k3, PS) the figure was 51%; with CTTGATTTGTCAGCAG (sugars k3 d10 k3, PS), 51% and 44%; with “GATTGTGCTGAGCTTG (sugars k3 d9 k3 e1, PS)”, 30%. The same measure, in the same setting: with TTAGGAGTCTTTATAG (sugars k3 d10 k3, PS) the figure was 30%. Regarding “CTTGGTCTTGACCTCC (sugars kekdddddddddeekk, PS)”, in series [2], the target mRNA inhibition is 36%. In the case of “AAGGGCACAGACGCAGG (sugars kdddddddddkekeked, PS)”, in series [2], the target mRNA inhibition is 0%. Same read-out and setting: to “GCATTCCATATACACA (sugars kddddddddddkekek, PS)” belongs 39%; to “GAAGTGAGTCTCAAAC (sugars kdddddddddkekeke, PS)”, 11%; to “GAGTCATGGGCTGAGG (sugars kkddddddddddkeke, PS)”, 40%.

Regarding TGATTCCAATTTTGCA (sugars k3 d10 k3, PS), in series [2], the target mRNA inhibition stood at 17%. On to “CGGTCTTTGAGGTCTG (sugars kekdddddddddeekk, PS)”, for which the target mRNA inhibition in series [2] came out at 49%.

Source of the values: the OligoGym collection.
